Results published in the NIST ThermoML archive (doi:10.1016/j.jct.2009.06.010).
Numbers after ± are expanded uncertainties.

Experiments:
[1] = mn = molality of the nth substance listed, in mol/kg; conditions: 298.15 K, 101 kPa, Liquid; for viscosity: Capillary tube (Ostwald / Ubbelohde) method; for mass density: Vibrating tube method
[2] = cn = amount concentration of the nth substance listed, in mol/dm3; conditions: 298.15 K, 101 kPa, Liquid

NCC(=O)N[C@@H](CCC(N)=O)C(=O)O [glycyl-l-glutamine] + O
[1]
Conditions	mass density [kg/m3]	viscosity [mPa·s]
m1 = 0.03879	1000.01 ± 0.096	–
m1 = 0.05	–	0.913 ± 0.037
m1 = 0.06116	1001.7 ± 0.096	–
m1 = 0.08141	1003.22 ± 0.095	–
m1 = 0.1	–	0.936 ± 0.038
m1 = 0.1008	1004.66 ± 0.095	–
m1 = 0.1497	1008.28 ± 0.095	–
m1 = 0.15	–	0.961 ± 0.039
m1 = 0.1987	1011.85 ± 0.095	–
m1 = 0.2	–	0.985 ± 0.04
m1 = 0.2522	1015.68 ± 0.095	–

CCCC(=O)[O-].[Na+] [sodium butyrate] + O
[2]
Conditions	molar conductivity [S·m2/mol]
c1 = 0.0003234	0.00796 ± 8e-05
c1 = 0.001116	0.00795 ± 7.9e-05
c1 = 0.001273	0.007936 ± 7.9e-05
c1 = 0.001488	0.007915 ± 7.9e-05
c1 = 0.00188	0.00788 ± 7.9e-05
c1 = 0.00243	0.007842 ± 7.8e-05
c1 = 0.002454	0.00787 ± 7.9e-05
c1 = 0.003167	0.00766 ± 7.7e-05
c1 = 0.006298	0.007526 ± 7.5e-05
c1 = 0.008849	0.007443 ± 7.4e-05
c1 = 0.01124	0.00737 ± 7.4e-05
c1 = 0.01353	0.007315 ± 7.3e-05
c1 = 0.0155	0.00727 ± 7.3e-05
c1 = 0.01721	0.007239 ± 7.2e-05
c1 = 0.01916	0.007203 ± 7.2e-05
c1 = 0.02091	0.00717 ± 7.2e-05
c1 = 0.02284	0.007137 ± 7.1e-05
c1 = 0.02481	0.0071 ± 7.1e-05
c1 = 0.02647	0.00707 ± 7.1e-05

CC(=O)[O-].[Na+] [sodium ethanoate] + O
[2]
Conditions	molar conductivity [S·m2/mol]
c1 = 0.0002726	0.0088 ± 8.8e-05
c1 = 0.0004823	0.008807 ± 8.8e-05
c1 = 0.0007722	0.008806 ± 8.8e-05
c1 = 0.0009672	0.00879 ± 8.8e-05
c1 = 0.001191	0.00877 ± 8.8e-05
c1 = 0.001382	0.00872 ± 8.7e-05
c1 = 0.001567	0.008739 ± 8.7e-05
c1 = 0.001787	0.00872 ± 8.7e-05
c1 = 0.002055	0.008701 ± 8.7e-05
c1 = 0.002254	0.00869 ± 8.7e-05
c1 = 0.002454	0.00867 ± 8.7e-05
c1 = 0.003305	0.00849 ± 8.5e-05
c1 = 0.00463	0.00842 ± 8.4e-05
c1 = 0.006134	0.008351 ± 8.3e-05
c1 = 0.007784	0.00829 ± 8.3e-05
c1 = 0.008716	0.00826 ± 8.3e-05
c1 = 0.01014	0.008207 ± 8.2e-05
c1 = 0.01138	0.00817 ± 8.2e-05
c1 = 0.01268	0.008135 ± 8.1e-05
c1 = 0.01404	0.008103 ± 8.1e-05
c1 = 0.01528	0.00808 ± 8.1e-05
c1 = 0.01648	0.00806 ± 8.1e-05
c1 = 0.01789	0.00802 ± 8e-05
c1 = 0.01915	0.008 ± 8e-05
c1 = 0.02025	0.00797 ± 8e-05
c1 = 0.02164	0.007945 ± 7.9e-05
c1 = 0.02337	0.007911 ± 7.9e-05
c1 = 0.02523	0.00787 ± 7.9e-05
c1 = 0.02696	0.007849 ± 7.8e-05

C[C@H](N)C(=O)N[C@@H](CCC(N)=O)C(=O)O [L-alanyl-L-glutamine] + O
[1]
Conditions	mass density [kg/m3]	viscosity [mPa·s]
m1 = 0.0401	999.957 ± 0.093	–
m1 = 0.05	–	0.918 ± 0.037
m1 = 0.08086	1002.88 ± 0.093	–
m1 = 0.1	–	0.948 ± 0.038
m1 = 0.1012	1004.32 ± 0.092	–
m1 = 0.148	1007.6 ± 0.092	–
m1 = 0.15	–	0.978 ± 0.04
m1 = 0.2	–	1.008 ± 0.041
m1 = 0.2002	1011.17 ± 0.092	–
m1 = 0.2448	1014.22 ± 0.091	–
m1 = 0.2993	1017.77 ± 0.091	–
